The source of these data is ChEMBL document CHEMBL1201862, “PubChem BioAssay data set” (2004).

Holding throughout (assay): inhibition of tumour cell growth, NCI panel, 48 h
Experiment [1] relates to SF-268.
The subject of experiment [2] is COLO 205.
Experiment [3] relates to UACC-62.
The test system of experiment [4] is CAKI-1.
The subject of experiment [5] is HOP-62.
Experiment [6] relates to OVCAR-8.
Experiment [7] relates to MDA-N.
Experiment [8] deals with SF-295.
Experiment [9] relates to RPMI-8226.
Experiment [10] has as its system U-251.
Experiment [11] deals with KM12.
Experiment [12] relates to HCT-116.
Experiment [13] concerns K562.
Experiment [14] deals with A498.
In experiment [15] the test system is DU-145.
Experiment [16] deals with PC-3.
In experiment [17] the test system is HT-29.
Experiment [18] has as its system Malme-3M.
In experiment [19] the test system is HOP-92.

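Values below derive from 48-hour exposures of cells grown in 96-well plates, with endpoints linearly interpolated between the two concentrations bracketing the appropriate inhibition level. Abbreviation: GI50, concentration required for 50% inhibition of growth.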 Active and inactive are the calls of the source. Cut-off read from the data, not from the text of the source: active = GI50 up to about 1.1 µM and inactive = higher.

For the compound `Cc1ccc(S(=O)(=O)N(CC(O)COc2ccccc2)c2ccccc2Cl)cc1` (stereo not given), the GI50 in experiment [1] was 17.1 µM (inactive); in experiment [2], 16.8 µM (inactive); in experiment [3] it was 8.61 µM (inactive); in experiment [4], 15.5 µM (inactive); in experiment [5] it was 20 µM (inactive); in [6], 16.3 µM (inactive). Further, the GI50 in experiment [7] is 16.3 µM (inactive); in [8] it was 24.3 µM (inactive); in experiment [9] it was 11.5 µM (inactive); in experiment [10], 14.4 µM (inactive); in experiment [11] it was 14.6 µM (inactive); in experiment [12] it was 14.6 µM (inactive). Moreover, the GI50 in experiment [13] was 11.6 µM (inactive); in experiment [14], 17.7 µM (inactive); in experiment [15] it was 28.8 µM (inactive); in experiment [16], 15.9 µM (inactive); in experiment [17], 17.5 µM (inactive); in experiment [18], 14.5 µM (inactive).
Take `CC(C)(C)OC(=O)NC1CCCC1C(O)(C1=CCCC1)C1=CCCC1` (stereo not given): the GI50 in [1] is > 100 µM (inactive); in [2], > 100 µM (inactive); in experiment [3], 51.9 µM (inactive); in [5], > 100 µM (inactive); in experiment [6], > 100 µM (inactive); in [7], > 100 µM (inactive). In addition, the GI50 in experiment [9], in experiment [10], in [19], in experiment [11], in experiment [12] and in experiment [14] was > 100 µM (inactive) throughout. The GI50 in [15] is > 100 µM (inactive); in experiment [16], > 100 µM (inactive); in [17], 76.2 µM (inactive).
Turning to `COc1ccc(-c2cc(-c3cc4cc(Br)ccc4nc3Cl)c(C#N)c(N)n2)cc1`, the GI50 in experiment [1], in experiment [2], in experiment [4], in experiment [5], in [6] and in experiment [7] was > 12.5 µM (inactive) throughout. For the same compound, the GI50 in [8], in [9], in experiment [19], in experiment [11], in [12] and in experiment [13] was > 12.5 µM (inactive) in each case. The GI50 in experiment [15], in experiment [16], in [17] and in experiment [18] was > 12.5 µM (inactive) each time.
With `CCCCCCCCCCCCCCCC[N+](C)(C)Cc1ccc(F)cc1`, the GI50 in experiment [1] was 1.56 µM (inactive); in [2], 1.61 µM (inactive); in [3], 1.67 µM (inactive); in [4] it was 2.7 µM (inactive); in [5] it was 1.5 µM (inactive); in experiment [6], 1.51 µM (inactive). Further, the GI50 was 1.96 µM (inactive) in [7]; 2.37 µM (inactive) in experiment [8]; 1.06 µM (active) in experiment [9]; 1.43 µM (inactive) in experiment [10]; 1.27 µM (inactive) in [19]; 1.26 µM (inactive) in experiment [11]. Also, the GI50 was 1.48 µM (inactive) in [12]; 1.26 µM (inactive) in [13]; 26.2 µM (inactive) in experiment [14]; 3.68 µM (inactive) in experiment [15]; 1.11 µM (active) in experiment [16]; 1.26 µM (inactive) in [17].
`CCOCc1c(C)cc(C)c(C2C(C(=O)c3ccccc3)N3c4ccccc4C=CC3C2(C#N)C(=O)OCC)c1C` (stereo not given): the GI50 in experiment [1] is 53.8 µM (inactive); in experiment [2], 19.1 µM (inactive); in [3], 31 µM (inactive); in [4], 44 µM (inactive); in experiment [7] it was 27.4 µM (inactive); in experiment [8], 53 µM (inactive). Also, the GI50 in experiment [9] is 81.7 µM (inactive); in experiment [10], 85.7 µM (inactive); in experiment [11], 16.8 µM (inactive); in experiment [12] it was 26.7 µM (inactive); in experiment [13] it was > 100 µM (inactive); in [14], > 100 µM (inactive). The GI50 in experiment [15] is 37.8 µM (inactive); in experiment [16], 25.8 µM (inactive); in [17], 32.3 µM (inactive).
With `CN1CCCC(OC(=O)c2cc3cc(CCl)ccc3oc2=O)C1` (stereo not given), the GI50 in experiment [1] was 21.7 µM (inactive); in [2], 17.2 µM (inactive); in experiment [3] it was 17.3 µM (inactive); in experiment [4] it was 23.7 µM (inactive); in [5], 25.8 µM (inactive); in [6], 28.8 µM (inactive). Also, the GI50 in experiment [7] was 18.2 µM (inactive); in [8] it was 25.2 µM (inactive); in experiment [9] it was 29.4 µM (inactive); in [10], 14.9 µM (inactive); in experiment [19], 15.7 µM (inactive); in experiment [11] it was 24 µM (inactive). In addition, the GI50 in experiment [12] was 19.2 µM (inactive); in experiment [13], 27.9 µM (inactive); in experiment [15], 29.9 µM (inactive); in experiment [16], 18.3 µM (inactive); in experiment [17] it was 19.5 µM (inactive); in [18], 17.6 µM (inactive).
In the case of `C=C(Cl)COC(=O)Nc1cccc(Cl)c1`, the GI50 in [1] is 40.1 µM (inactive); in [2] it was 31.7 µM (inactive); in [3] it was 20.6 µM (inactive); in experiment [4], 31.9 µM (inactive); in experiment [5], 38.3 µM (inactive); in experiment [6] it was 32.6 µM (inactive). For the same compound, the GI50 is 34.2 µM (inactive) in experiment [7]; 25.7 µM (inactive) in [8]; 39.4 µM (inactive) in experiment [9]; 34.4 µM (inactive) in [10]; 22.7 µM (inactive) in experiment [19]; 31.6 µM (inactive) in experiment [11]. For the same compound, the GI50 in experiment [12] was 27 µM (inactive); in experiment [13], 54.6 µM (inactive); in experiment [14] it was 23.4 µM (inactive); in experiment [15], 31.1 µM (inactive); in [16], 29 µM (inactive); in [17], 33.3 µM (inactive).
For the compound `CN(C)CCNC(=O)c1cccc(N(C)C(=O)c2ccccc2)c1[N+](=O)[O-]`, the GI50 was > 100 µM (inactive) in experiment [1]; > 10 µM (inactive) in [2]; > 100 µM (inactive) in experiment [3]; > 100 µM (inactive) in [4]; > 100 µM (inactive) in [5]; > 100 µM (inactive) in experiment [6]. Moreover, the GI50 in [7], in experiment [8], in [10], in experiment [11], in [12] and in experiment [13] was > 100 µM (inactive) in each case. The GI50 in experiment [14], in experiment [15], in experiment [16], in [17] and in [18] was > 100 µM (inactive) in each case.
For the compound `COC(=O)CSC1CC(=O)c2c(Cl)sc(Cl)c21` (stereo not given), the GI50 in [1], in [2], in experiment [3], in experiment [4], in experiment [5] and in experiment [6] was > 100 µM (inactive) throughout. Moreover, the GI50 in experiment [7], in experiment [8], in experiment [10], in [19], in experiment [11] and in experiment [12] was > 100 µM (inactive) each time. Besides, the GI50 in [13], in experiment [15], in [16], in experiment [17] and in experiment [18] was > 100 µM (inactive) each time.
Consider `C/C=C1\CC2C(=O)CCC2C2c3ccccc3OC12` (stereo not given), for which the GI50 in experiment [1], in [2], in experiment [3], in experiment [4], in experiment [5] and in [6] was > 100 µM (inactive) each time. Further, the GI50 is 0.0718 µM (active) in experiment [7]; > 100 µM (inactive) in experiment [8]; > 100 µM (inactive) in [9]; > 100 µM (inactive) in experiment [10]; > 100 µM (inactive) in experiment [19]; > 100 µM (inactive) in experiment [11]. Besides, the GI50 in experiment [12] is > 100 µM (inactive); in experiment [13], > 100 µM (inactive); in experiment [15], 0.0617 µM (active); in [16], > 100 µM (inactive); in experiment [17], > 100 µM (inactive); in [18] it was > 100 µM (inactive).
With `O=C1Nc2ccccc2/C1=C1/Nc2ccccc2/C1=N\OCCNCC(O)C(O)C(O)C(O)CO` (stereo not given), the GI50 in [1] is 11.9 µM (inactive); in [2], 12.1 µM (inactive); in experiment [3], 8.93 µM (inactive); in experiment [4], 38.5 µM (inactive); in [5], 11.7 µM (inactive); in experiment [6], 18.5 µM (inactive). The GI50 in experiment [7] was 9.89 µM (inactive); in experiment [8] it was 30.7 µM (inactive); in experiment [9], 19.1 µM (inactive); in experiment [10] it was 12.9 µM (inactive); in [19] it was 10.1 µM (inactive); in experiment [11] it was 5.14 µM (inactive). Besides, the GI50 is 13.4 µM (inactive) in experiment [12]; 16.3 µM (inactive) in [13]; 21.2 µM (inactive) in experiment [15]; 10.2 µM (inactive) in experiment [16]; 16.9 µM (inactive) in experiment [17]; 11.2 µM (inactive) in experiment [18].
Regarding `C=CCSc1nn(CC=C)cc2ncnc1-2`, the GI50 in experiment [1], in [2], in experiment [3], in experiment [4], in experiment [5] and in [6] was > 100 µM (inactive) each time. For the same compound, the GI50 in experiment [7], in experiment [8], in [9], in experiment [10], in [11] and in experiment [12] was > 100 µM (inactive) throughout. For the same compound, the GI50 in [13], in experiment [14], in experiment [15], in experiment [16] and in experiment [17] was > 100 µM (inactive) each time.
